Consider one sequence from patent US10240133B2, “ERK-derived peptides and uses thereof” (Yeda Research and Development Co. Ltd., priority 2013, dated 2019).

Holding throughout (format): cell-based
One experiment relates to Elk1. Kind of experiment: Western blotting of Elk1 phosphorylation. The following applies: varied among the cell lines; EPE vs scrambled after TPA. The protocol:
(§1) (A) EPE peptide prevents ERK1/2-importin7 interaction. HeLa cells were serum starved (0.1%, 16 hours), pretreated with EPE peptide, scrambled peptide (10 μM, 2 hours) or DMSO, and then stimulated with TPA (250 nM, 15 min). ERK1 were precipitated with αgERK1 Ab; importin7 co-immunoprecipitated with ERK1 was detected by WB with αimportin7 Ab. […] T47D, HeLa, MDA-MB-231 and A2352 cells were serum starved (0.1%, 16 hours), pretreated with EPE peptide, scrambled peptide (10 μM, 2 hours) or DMSO control, and then stimulated with TPA (250 nM, indicated times). Cell extracts were subjected to Western blot analysis with the indicated Abs. (C) EPE peptide inhibits phosphorylation of c-Myc and Elk1 in B-Raf melanomas. A2158 and A2352 cells were treated with scrambled and EPE peptide for two hours and then stimulated with the indicated concentration of TPA for 30 min. […] (D) Quantification of some of the results in B and C. […]
(§2) (i) Preparation of cellular extracts for Western Blotting: Cells were rinsed twice with ice-cold PBS and scraped into Radio-immunoprecipitation assay buffer (RIPA; 137 mM NaCl, 20 mM Tris (pH 7.4), 10% glycerol, 1% Triton X-100, 0.5% deoxycholate, 0.1% SDS, 2 mM EDTA, 1 mM PMSF, and 20 μM leupeptin). The extracts were centrifuged (20,000×g, 15 min, 4° C.), and the supernatants were further analyzed by Western blotting. […]
Background: Immunoblotting shows a protein as a band on a membrane.

Experiment [1] addresses T1, interaction of Imp7 with ERK (Homo sapiens, UniProt O95373).
T1 construct: endogenous in cells; host or cells: HeLa
In words: Coimmunoprecipitation of Imp7 with ERK. The following applies: HeLa cells; 10 μM, 2 hours; TPA. The protocol: as §1, §2

Experiment [2] deals with immortalized, non-transformed cells. In words: Proliferation assay (Methylene Blue). As to conditions: 72 h after peptide administration, 10 μM. The protocol: (§3) FIGS. 3A-3B illustrate that EPE peptide prevents proliferation of cancer but not normal cells. (A) Effect of the EPE peptide on the proliferation of various cell lines. Sixteen cancer and four “normal” immortalized cell lines were treated with either EPE or scrambled peptides as described above. Viable cells were assayed by Methylene Blue at 48 or 72 hours after cell seeding. The data from at least three independent experiments is presented as percent of the amount of viable cells/initial cell number, where initial cell number was considered as 100. (B) Comparison of the effects of the EPE-peptide and Raf inhibitor PLX4032 on cell viability. NHEM-Ad, LOXIMVI, A2352, Hela MDA-MB-231, and DU-145 cells were treated with EPE peptide, scrambled peptide, (10 μM), PLX4032 (1 μM), DMSO control, or no treatment at 1% FCS. The number of cells was detected as above. The graphs present the kinetic of cell growth at the indicated times. All experiments were repeated 3 times in triplicates.
(§4) All cells, except of MCF-10A, were seeded into 12-well cell plates in 1% FBS medium. MCF-10A cells were seeded in their complete medium diluted 5 fold. DMSO, Scr peptide, EPE peptide, or U0126 (final concentration of 10 μM each) were added to the appropriated wells four hours later. Every day medium was changed to fresh one containing the same agents. The number of viable cells was measured by Methylene Blue assay at 72 h after cell seeding. Shortly, cells were fixed with 4% Formaldehyde for 2 h at 23° C., washed once with 0.1M Borate Buffer pH 8.5 and stained with of 1% Methylene Blue in 0.1M Borate Buffer for 10 min. Color was extracted by adding 0.1 M HCl for 3 h at 23° C., and examined at 595 nm. For time course experiments, viable cells were measured at 0, 24, 48, 72 and 96 h after cell seeding. For dose response experiments we treaded the cells with 0.1, 1, 3, 10, or 30 μM of peptides for 72 h, as described above.

Experiment [3] deals with other melanomas, prostate and lung cancer-derived cells. In words: Proliferation assay (Methylene Blue). The following applies: 72 h after peptide administration, 10 μM. The protocol: as §3, §4
Experiment [4] has as its system breast, prostate and cervical cancer-derived cells. In words: Proliferation assay (Methylene Blue). As to conditions: 72 h after peptide administration, 10 μM. The protocol:
as §3, §4

For experiment [5], the system named is melanoma cells with oncogenic B-Raf (B-Raf melanoma). In words: Proliferation assay (Methylene Blue). As to conditions: 72 h after peptide administration, 10 μM. The protocol:
as §3, §4

T1 sequence (O95373 whole entry): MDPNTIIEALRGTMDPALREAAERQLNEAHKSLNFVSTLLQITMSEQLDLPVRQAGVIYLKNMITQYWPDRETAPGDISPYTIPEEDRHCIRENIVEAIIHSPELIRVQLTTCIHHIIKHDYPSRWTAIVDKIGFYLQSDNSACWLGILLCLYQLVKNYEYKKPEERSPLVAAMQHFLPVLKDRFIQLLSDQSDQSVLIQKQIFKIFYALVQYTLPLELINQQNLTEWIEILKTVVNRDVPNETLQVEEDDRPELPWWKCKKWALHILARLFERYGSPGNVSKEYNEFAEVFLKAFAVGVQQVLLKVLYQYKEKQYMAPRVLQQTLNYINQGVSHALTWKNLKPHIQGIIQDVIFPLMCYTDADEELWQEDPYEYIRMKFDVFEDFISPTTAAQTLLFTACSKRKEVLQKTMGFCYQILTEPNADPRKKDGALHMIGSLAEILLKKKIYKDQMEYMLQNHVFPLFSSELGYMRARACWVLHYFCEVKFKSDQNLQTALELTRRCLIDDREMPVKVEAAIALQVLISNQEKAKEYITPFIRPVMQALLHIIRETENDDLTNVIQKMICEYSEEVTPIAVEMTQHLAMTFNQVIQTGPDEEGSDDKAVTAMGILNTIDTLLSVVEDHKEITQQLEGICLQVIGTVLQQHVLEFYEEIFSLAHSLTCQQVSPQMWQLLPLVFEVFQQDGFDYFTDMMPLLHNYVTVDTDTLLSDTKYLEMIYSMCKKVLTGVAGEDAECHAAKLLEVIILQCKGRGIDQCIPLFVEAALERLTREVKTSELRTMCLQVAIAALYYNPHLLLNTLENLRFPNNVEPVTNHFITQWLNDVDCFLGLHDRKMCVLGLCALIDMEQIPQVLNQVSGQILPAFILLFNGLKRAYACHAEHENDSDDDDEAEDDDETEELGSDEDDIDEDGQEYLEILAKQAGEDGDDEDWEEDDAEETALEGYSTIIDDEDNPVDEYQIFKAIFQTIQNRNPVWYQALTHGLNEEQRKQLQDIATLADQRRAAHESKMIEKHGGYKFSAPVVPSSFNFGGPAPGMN

On to “GQLNHILGILGEPEQED (Synthetic peptide (EPE)) [EPE peptide, NTS-derived peptide with phosphomimetic EPE motif]”, for which the “inhibition of phosphorylation of Elk1” value in the experiment with Elk1 was 20-45%. For the same sequence, in experiment [1], the “interaction of Imp7 with ERK” value is “prevented the interaction of Imp7 with ERK”. The “proliferation (cell number)” value is on record as “did not respond to the peptide at all” in experiment [2]; “small decrease in cell growth” in experiment [3]; “prevented cell growth, but did not reduce the number of initial cells” in experiment [4]; “profound reduction in cell number” in experiment [5].
